Measured values as given in publication PMC12775124, “CUL4A-DDB1-DCAF10 is an N-recognin for N-terminally acetylated Src kinases” (Nature Communications, 2026).

What was measured:
DCAF10 = assay: Peptide pull-down with quantitative MS, HeLa lysate, DCAF10; format: binding, human (HeLa); conditions: HeLa lysate
Experimental: Beads presenting 10-residue synthetic Nt-peptides of proteins of interest in their free (Nt-free) or modified (e.g., Nt-acetylated) versions were incubated with lysates from HeLa cells, followed by MS-based quantification of retained binders (Fig. 1a).
Biotinylated 10-mer Nt-peptides (Nt-free, Nt-acetylated, and, where indicated, Nt-myristoylated; sequences in Supplementary Table 1) were synthesized with a C-terminal Lys3 spacer and biotin, immobilized on magnetic streptavidin beads, and incubated with HeLa or mouse liver lysates. After standardized washes, bound proteins were on-bead reduced/alkylated, digested with LysC/trypsin, desalted, and analysed by LC-MS in DIA mode (Orbitrap Exploris 480) as described previously[24]. Variants included endogenous Nt-sequences, swap and mutant (Ala-Ala-Ala or Nt-amino acids) peptides, and pairwise comparisons of conditions of interest.
All MS experiments were performed as independent biological triplicates. Relative protein quantification was carried out using the label-free algorithm integrated in DIA-NN[53], and statistical testing was performed in Perseus using a two-sided Student’s t test with permutation-based multiple-testing-adjusted p-values[53],[54], as specified in the figure legends. […] Volcano blots were visualized with RStudio (version 2023.06.0). […] Cell experiments were performed as biological replicates, and binding assays as independent assays. […] Data are presented as mean ± s.d. Fold changes are reported as the ratio of the normalized value for the condition of interest to the normalized control value, with mean ± s.d. computed across biological replicates.

GST-DCAF10 = assay: Streptavidin pull-down of GST-DCAF10 with biotinylated Nt-peptides; format: binding, human; conditions: 0.5 µM GST-DCAF10, 5 µM peptide, 1 h RT; WB; listed as Nt-acetylated Fyn
Experimental: To confirm direct interactions between peptides and DCAF10, we performed pull-down assays using bead-bound Nt-peptide variants incubated with purified full-length GST-DCAF10 or GST as a negative control (Fig. 2m–p and Supplementary Fig. 4a).
230 of 1:100), and desalted/concentrated on C18 reversed phase stage tips as previously
MS measurements settings are stated in MS measurements and raw file
BL21(DE3) cells (Thermo Fisher Scientific,
240 agar) plate containing 100 μg/mL ampicillin and 34 μg/mL chloramphenicol, then
Terrific broth (TB) medium (24 g/L yeast extract,
243 20 g/L tryptone, glycerol 4 mL/L, 100 mL/L phosphate buffer containing 0.17 M KH2PO4
244 and 0.72 M K2HPO4) was used to prepare a 1:100 dilution of the starter culture, and OD600
At OD600 = 1, protein induction was initiated by adding 1 mM
247 day, pellets were homogenized and lysed in glycerol lysis buffer (20 mM Tris-HCl pH
Lysis was performed on ice for 30 min, followed by
250 sonication (7 × 20 sec pulses with 20 sec breaks on ice) using a Bandelin sonoplus
Lysates were centrifuged at 4°C for 1 h
253 medium culture was lysed in 20 mL of supernatant (collected in 20 × 1 mL tubes). GST
255 agarose bead; Thermo Fisher Scientific, Waltham, MA, USA). For each 1 mL of
100 μL of GST magnetic beads
257 were washed twice with 500 μL of wash buffer (125 mM Tris-HCl pH 7.4, 150 mM NaCl,
The lysis supernatant was diluted 1:1 with
259 wash buffer, and incubated with the beads on an end-over-end rotator for 1 h at 25°C.
260 After incubation, the supernatant was removed, and the beads were washed twice with
Protein elution was then performed by incubating
263 pH 7.4, 250 mM NaCl, 0.3% Triton X-100) for 30 min at 25°C on an end-over-end rotator.
265 under the same conditions. Elution fractions were pooled and concentrated by
266 centrifugation (4°C, 25 min, 4500 rpm) using a 30 kDa cut-off concentrator (Merck
267 Millipore, #UFC803008, Darmstadt, Germany). Purified proteins were analyzed by
268 colloidal Coomassie stain, WB and MS.
270 Streptavidin pull-downs with GST-DCAF10 and biotinylated peptides
271 Streptavidin magnetic beads (DynabeadsTM MyOneTM Streptavidin T1; Thermo Fisher
272 Scientific, Waltham, MA, USA) were washed twice with 500 μL of wash buffer (125 mM
273 Tris-HCl pH 7.4, 150 mM NaCl, 0.1% Triton X-100). An excess of peptides was added
274 (to ensure full occupancy of the beads) and incubated for 30 min at RT. After peptide
275 binding, beads were again washed three times with 500 μL of wash buffer. The pull-down
276 was then performed in a 100 μL reaction volume with final concentrations of 0.5 µM
277 GST-DCAF10 and 5 µM peptide. GST-DCAF10 or GST alone (as a control) was added
278 to the peptide-streptavidin beads and incubated on a rotator for 1 h at RT. After incubation,
279 the beads were washed three times with 500 μL of wash buffer and resuspended in 4x
280 Laemmli buffer. 1/5 of the input (GST-DCAF10 and GST) and 9/10 of the sample were
281 loaded on a 10% SDS gel and blotted with anti-GST and anti-DCAF10 antibodies, while
282 1/10 was loaded on a 15% SDS gel and blotted with anti-streptavidin antibody to assess
283 equal peptide loading.
285 Streptavidin Sepharose High Performance, GE Healthcare, Chicago, IL, USA) were used.
286 After washing with a high salt wash buffer without detergents (125 mM Tris-HCl pH 7.4,
287 400 mM NaCl), an excess of peptides was added and incubated for 30 min at RT. For each
288 reaction, 10 µL of slurry beads were used. After peptide-binding, beads were again
289 washed once with a high salt wash buffer without detergents and twice with binding buffer
290 without detergents (125 mM Tris-HCl pH 7.4, 150 mM NaCl). The pull-downs were
291 performed in a 100 μL reaction volume in binding buffer without detergents with a final
292 concentration of 0.5 µM GST-DCAF10 and incubated rotating for 1 h at RT. After
293 incubation, the beads were washed five times with 500 μL of high salt wash buffer without […]

CUL4A-DDB1-DCAF10 = assay: In vitro ubiquitination of Lyn-GFP variants by CUL4A-DDB1-DCAF10; format: biochemical, human; conditions: Lyn-GFP variants, NMT1/2 siRNA
Source text: Lyn^WT-GFP was ubiquitinated by the WT E3 complex in both conditions; however, unlike in vitro ubiquitination with endogenous Lyn (Fig. 5c, d), ubiquitination increased ~6-fold under NMT1/2 siRNA conditions. This is consistent with DCAF10 being limiting and overexpressed Lyn-GFP, accumulating an acetylated fraction available for DCAF10 in vitro. Then, we performed IPs for all Nt variants under NMT1/2 siRNA conditions (Fig. 6d, h–i). […] In vitro ubiquitination assays using untreated cell lysates led to similar results (Supplementary Fig. 7h, i).
Reactions contained E1, UBCH5B (E2), ubiquitin, Mg-ATP in ligation buffer and were incubated with bead-bound substrates, followed by washing and immunoblot detection of ubiquitinated species (anti-ubiquitin), with loading controls (anti-Lyn, -Fyn, -Src or -GFP) (n = 3 independent enzymatic assays). Complete reagent lists, complex preparation, substrate IP conditions, wash buffers, and gel/blot parameters are provided in the Supplementary Methods and Tables.
357 (v/v) glycerol, 2 mM TCEP, supplemented with Protease Inhibitor Cocktail), and lysed
358 by sonication. Lysates were cleared by centrifugation at 28,000 rpm for 45 min at 4 °C
359 using a JA-30.50 rotor (Beckman Coulter, Brea, CA, USA). The cleared and filtered (0.8
360 µm) lysate was applied to 1 mL of Strep-Tactin®XT 4Flow® resin (iba), pre-equilibrated
361 once with wash buffer (100 mM Tris-HCl pH 8.0, 150 mM NaCl, 1 mM EDTA) and lysis
362 buffer. The lysate was incubated on a tube roller for 16 h at 4 °C. After incubation, beads
363 were washed with 50 mL of lysis buffer. Bound proteins were eluted with 10 mL of lysis
364 buffer supplemented with 50 mM biotin, after 15 min incubation on a tube roller at 4 °C.
366 Superdex 200 10/300 or 16/60 SEC column (GE Healthcare, Chicago, IL, USA),
367 preequilibrated in SEC buffer (250 mM Tris pH 7.5, 250 mM NaCl, 10% (v/v) glycerol,
370 Purified proteins were visualized during and after the purification by SDS-gels containing
371 TCE (2,2,2-trichloroethanol)62. The identity of proteins was confirmed by WB and MS.
373 In vitro ubiquitination assays
374 The in vitro ubiquitination assays were performed as previously described8. In brief,
375 E1 (50 nM), UBCH5B (250 nM), ubiquitin (1.5 µg), Mg-ATP (3 mM), ligation buffer,
376 and water were pre-mixed. The premix was divided, and either CUL4A-RBX1-
378 RBX1DDB1 (-DCAF10) (250 nM each) was added. 15 μL of each premix were incubated
379 with substrates (endogenous Lyn or Lyn-GFP constructs) bound to beads for 1 h at 30°C
380 with shaking. Samples were then washed four to five times with a buffer containing 50 […]
382 EDTA, and loaded on a gradient gel (4–15%). Ubiquitination of substrates was assessed
383 by WB using an anti-ubiquitin antibody. Equal substrate loading was evaluated by anti- […]

[1] = tested on: DLD-1 Flp-In T-REx and Lyn KO cells; assay: Level of Lyn / Lyn-GFP variants after NMT1/2 and DCAF10 siRNA, Western blot; format: cell-based, human; conditions: WB/vinculin, n = 3
Source text: To further investigate the role of the Nt-amino acid and its modification in DCAF10 recognition and DCAF10-dependent ubiquitination, we used the CRISPR/Cas9 technique to knock out Lyn in DLD-1 cell lines with T-REx Flp-In background (DLD-1 Lyn KO Flp-In T-REx) (Supplementary Fig. 7a–c). We then integrated Lyn^WT-GFP and two Nt-mutants (Lyn^G2A-GFP and Lyn^G2P-GFP) under a doxycycline-inducible promoter into the Flp-In cassette. Alanine (G2A) is expected to be efficiently acetylated by NatA, generating an Nt-acetylated Lyn mutant. Conversely, the proline (G2P) mutant, is expected not to be acetylated and may retain a free N-terminus[3],[36],[37]. Doxycycline-induced expression of Lyn^WT-GFP, Lyn^G2A-GFP, and Lyn^G2P-GFP was confirmed by Western blot, MS, and fluorescence microscopy (Supplementary Figs. 7d, e; 8a and Supplementary Data 6). While all constructs were ~2–5-fold higher expressed than endogenous Lyn, G2A and G2P were further elevated relative to WT, which may reflect increased stability when Nt-Gly/acetylation is altered (Supplementary Fig. 7e). […] Lyn^WT-GFP mirrored the behavior of endogenous Lyn under NMT1/2 siRNA treatment. Lyn levels decreased with NMT1/2 KD, but were rescued when siRNAs targeting both NMT1/2 and DCAF10 were applied (Fig. 6a, b). […] The weaker reduction of Lyn^WT-GFP may result from Lyn overexpression and the limiting availability of DCAF10.
Fig. 6 N-terminal glycine mutation abolishes DCAF10-dependent stability and ubiquitination. a DLD-1 Flp-In T-REx cells and Lyn KO cells expressing Lyn^WT-GFP, Lyn^G2A-GFP, or Lyn^G2P-GFP were induced for 24 h with 100 ng/mL doxycycline. Cells were treated with NMT1/2 siRNA, DCAF10 siRNA, or both (or left untreated) for 72 h. Representative WBs are shown. Filled circles represent siRNA treatment, empty circles untreated. b WB quantifications of Lyn levels normalized to vinculin. Purple: untreated with NMT1/2 siRNA; blue: treated with NMT1/2 siRNA. Mean ± s.d. with individual data points are shown (n = 3 independent biological replicates). c Schematic of ubiquitination experiments. Created in BioRender. […] Lysates have been treated with NMT1/2 RNAi for 72 h. i Quantification of in vitro ubiquitination assays. Mean ± s.d. with individual data points are shown (n = 3 independent ubiquitination assays). Volcano plots of Lyn-GFP^WT binding partners: j NMT1/2 siRNA ± doxycycline (Dox); k Control ± doxycycline; l NMT1/2 siRNA vs. control both with doxycycline. The −log10 adjusted p-value (two-sided Student’s t test with permutation-based multiple-testing correction; y-axis) is plotted against the log2 fold change (x-axis). Threshold for significance: −log10 p-value ≥ 1.3 (p ≤ 0.05), log2 fold change ≤ −1 or ≥ 1. DCAF10 and Lyn-GFP are marked in green, significant binding partners in purple and in blue, respectively. Source data are provided as a Source data file.
DLD-1 Lyn knockout (KO) Flp-In T-REx cells were generated by CRISPR/Cas9 electroporation using two guide RNAs targeting the LYN locus. Editing and clone validation were confirmed by genomic sequencing, Western blotting, and MS[51]. Stable cell lines expressing doxycycline-inducible Lyn-GFP (WT, G2A, or G2P) were established by FRT/Flp-mediated recombination and validated by antibiotic selection, Western blotting, and fluorescence microscopy. Detailed protocols are provided in the Supplementary Methods and Tables.
461 electroporated using the CM137 program. Following electroporation, the cells were kept […]

GCVQCKDKEAKK [Ac-Fyn, Nt-peptide of Fyn, Nt-acetylated]
DCAF10 binding, Nt-Ac vs Nt-Myr (in words) (DCAF10): DCAF10 selectively recognizes the acetylated form
DCAF10 binding (in words) (DCAF10; Nt-Ac vs Nt-free peptides): bound to DCAF10
Binding to GST-DCAF10 (in words) (GST-DCAF10): bound robustly to GST-DCAF10

RBX1^mut: catalytically inactive variant complex (RBX1 C75A, H77A)
In vitro ubiquitination (in words) (CUL4A-DDB1-DCAF10): failed to ubiquitinate any variant above background

endogenous Lyn: endogenous Lyn kinase of DLD-1 cells
Level decrease following NMT1/2 KD ([1]; DLD-1, 72 h NMT1/2 siRNA, 24 h doxycycline 100 ng/mL, average): 31%
Level increase upon combined NMT1/2 and DCAF10 KD ([1]; DLD-1, 72 h siRNA): 36.5%
